From PMC12852919 (Scientific Reports, 2025)
Values joined by “and” are separate entries in the source; they are usually repeats but may differ in a detail not shown here. Equal values may be shown once. Read-outs that look alike come from different tables or passages of the source.

Assays:
[1] = system: SW-872 cells; test: Cell cycle distribution by flow cytometry, DAPI staining; type: cell-based, human; conditions: SW-872, IC25 concentration, 18 h
[2] = Solubility in water; type: physicochemical

For O=S(=O)([O-])c1ccc(O)c(C=NNC(=S)Nc2cccc3ccccc23)c1.[Na+] [L, sodium-4-hydroxy-3-((2-(naphthalene-1-ylcarbamothioyl)hydrazono)methyl)benzenesulfonate], the “Cell cycle distribution, S” value [1] was 32.94, the “effect on cell cycle” value [1] was “cell cycle arrest in the S phase” and the solubility in water [2] was 4420 µg/mL and 4400 µg/mL. The solubility in water ([2]; listed as L^Cu) was 1600 µg/mL, the solubility in water ([2]; listed as L^Fe) was 2500 µg/mL and the solubility in water ([2]; listed as L^Mn) was 3200 µg/mL. For the same molecule, the solubility in water ([2]; listed as L^Ni) was 1400 µg/mL and the solubility in water ([2]; listed as L^Zn) was 2400 µg/mL.
